# Molecular target: T1, hROMK (hKir1.1) (Homo sapiens, UniProt P48048)
# T1 construct: expressed in transfected cells
# T1 sequence (P48048 1-391): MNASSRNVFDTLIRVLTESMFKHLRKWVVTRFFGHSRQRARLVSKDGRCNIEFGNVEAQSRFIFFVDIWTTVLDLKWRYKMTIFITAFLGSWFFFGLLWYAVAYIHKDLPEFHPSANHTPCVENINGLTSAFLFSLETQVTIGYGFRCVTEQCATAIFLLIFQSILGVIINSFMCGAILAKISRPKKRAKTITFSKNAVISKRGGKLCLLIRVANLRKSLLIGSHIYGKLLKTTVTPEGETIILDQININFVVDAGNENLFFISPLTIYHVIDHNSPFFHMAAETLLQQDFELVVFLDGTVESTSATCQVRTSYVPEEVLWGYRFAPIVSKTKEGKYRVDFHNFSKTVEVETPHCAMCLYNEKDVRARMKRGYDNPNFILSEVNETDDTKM
# Assay: Thallium Flux Assay (ROMK channel functional thallium flux, FLIPR-Tetra)
# Type: cell-based
# Conditions: HEK293 cells stably expressing hROMK (hKir1.1); 30 min incubation with compound; HCl salt run where final product was an HCl salt
# Protocol: The following Thallium Flux Assay was performed on each of the final product compounds in the Examples. When the final product of an Example was an HCl salt, the salt was run in the Assay.
# Cell Culture Conditions—HEK293 cells stably expressing hROMK (hKir1.1) were grown at 37° C. in a 10% CO2 humidified incubator in complete growth media: Dulbecco's Modified Eagle Medium supplemented with non-essential amino acids, Penicillin/Streptomycin/Glutamine, G418 and FBS. At >80% confluency, aspirate the media from the flask and rinse with 10 mL Calcium/Magnesium-free PBS. Add 5 mL of 1× trypsin (prepared in Ca/Mg Free PBS) to T-225 flask and return flask to 37° C./CO2 incubator for 2-3 minutes. To dislodge the cell, gently bang the side of the flask with your hand. Triturate the cells completely and then transfer the cells to 25 mL complete media. Centrifuge at 1,500 rpm for 6 min followed by resuspension in complete growth media and determine cell concentration. For typical re-seeding, 4E6 cells/T-225 flask will attain >80% confluency in 4 days. Under ideal growth conditions and appropriate tissue culture practices, this cell line is stable for 40-45 passages.
# FluxOR Kit Components (Invitrogen F10017)
# • FluxOR™ Reagent (Component A) • FluxOR™ Assay Buffer (Component B)—10× Concentrate • PowerLoad™ Concentrate (Component C)—100× Concentrate • Probenecid (Component D)—Lyophilized sample is kept at −20° C. Water soluble, 100× after solubilization in 1 mL water. Store at 4° C. • FluxOR™ Chloride-free Buffer (Component E)—5× Concentrate • Potassium sulfate (K2SO4) Concentrate (Component F)—125 mM in water. Store at 4° C. • Thallium sulfate (T12SO4) Concentrate (Component G)—50 mM in water. Store at 4° C. • DMSO (dimethyl sulfoxide, Component H)—1 mL (100%) Reagent Preparation: FluxOR Working Solutions • 1000× FluxOR™ Reagent: Reconstitute a vial of component A in 100 μl DMSO; Mix well; Store 10 μl aliquots at −20° C. • 1× FluxOR™ Assay Buffer: Dilute Component B 10-fold with water; Adjust pH to 7.4 with Hepes/NaOH; Filter and store at 4° C. • Probenecid/Assay Buffer: 100 mL of 1× FluxOR™ Assay Buffer; 1 mL of reconstituted component D; Store at 4° C. • Loading Buffer (per microplate): 10 μl 1000× FluxOR™ Reagent; 100 μl component C; 10 mL Probenecid/Assay Buffer • Compound Buffer (per microplate): 20 mL Probenecid/Assay Buffer; 0.3 mM ouabain (10 mM ouabain in water can be stored in amber bottle/aluminum foil at room temperature); Test compound • 1× FluxOR™ Chloride-Free Buffer: Prepare 1× working solution in water. Can be stored at room temperature • Stimulant Buffer (prepared at 5× final concentration in 1× FluxOR™ Chloride-Free Buffer): 7.5 mM Thallium sulfate and 0.75 mM Potassium sulfate (to give a final assay concentration of 3 mM Thallium/0.3 mM Potassium). Store at 4° C. when not in use.
# Assay protocol—The ROMK channel functional thallium flux assay is performed in 384 wells, using the FLIPR-Tetra instrument. HEK-hKir1.1 cells are seeded in Poly-D-Lysine microplates and kept in a 37° C.-10% CO2 incubator overnight. On the day of the experiment, the growth media is replaced with the FluxOR™ reagent loading buffer and incubated, protected from light, at ambient temperature (23-25° C.) for 90 min. The loading buffer is replaced with assay buffer±test compound followed by 30 min incubation at ambient temperature, where the Thallium/Potassium stimulant is added to the microplate.
# • 1. Seed HEK-hKir1.1 cells (50 μl at 20,000 cells/well) in 384-well PDL coated Microplates • 2. Allow cells to adhere overnight in humidified 37° C./10% CO2 incubator • 3. Completely remove cell growth media from microplate and replace with 25 μl loading buffer • 4. Incubate Microplate at room temperature, protected from light, for 90 min • 5. Remove loading buffer and replace with 25 μl 1× Assay Buffer±test compound. • 6. Incubate microplate at room temperature, protected from light, for 30 min • 7. […]
row,SMILES,IC50 [nM]
1,"Cc1c(C(O)CN2CCC(O)(C(=O)Nc3ccc(C#N)cn3)CC2)ccc2c1COC2=O (stereo in doubt) [Example 37, (R)-N-(5-cyanopyridin-2-yl)-4-hydroxy-1-(2-hydroxy-2-(4-methyl-1-oxo-1,3-dihydroisobenzofuran-5-yl)ethyl)piperidine-4-carboxamide]",470
2,"COc1nsc(NC(=O)C2CCN(C[C@H](O)c3ccc4c(c3C)COC4=O)CC2)n1 [Example 1, (R)-1-(2-Hydroxy-2-(4-methyl-1-oxo-1,3-dihydroisobenzofuran-5-yl)ethyl)-N-(3-methoxy-1,2,4-thiadiazol-5-yl)piperidine-4-carboxamide]",170
3,"Cc1ccc(C#N)cc1NC(=O)C1CCN(CCc2ccc3c(c2C)COC3=O)CC1 [Example 2, N-(5-cyano-2-methylphenyl)-1-(2-(4-methyl-1-oxo-1,3-dihydroisobenzofuran-5-yl)ethyl)piperidine-4-carboxamide]",460
4,"Cc1c(CCN2CCC(C(=O)Nc3ccc(C#N)cc3)CC2)ccc2c1COC2=O [Example 3, N-(4-cyanophenyl)-1-(2-(4-methyl-1-oxo-1,3-dihydroisobenzofuran-5-yl)ethyl)piperidine-4-carboxamide]",140
5,"Cc1c(CCN2CCC(C(=O)Nc3ccc(C#N)nc3)CC2)ccc2c1COC2=O [Example 4, N-(6-cyanopyridin-3-yl)-1-(2-(4-methyl-1-oxo-1,3-dihydroisobenzofuran-5-yl)ethyl)piperidine-4-carboxamide]",210
6,"Cc1c(CCN2CCC(C(=O)Nc3ccc(C#N)c4ccccc34)CC2)ccc2c1COC2=O [Example 6, N-(4-cyanonaphthalen-1-yl)-1-(2-(4-methyl-1-oxo-1,3-dihydroisobenzofuran-5-yl)ethyl)piperidine-4-carboxamide]",70
7,"Cc1nc(NC(=O)C2CCN(CCc3ccc4c(c3C)COC4=O)CC2)ccc1C#N [Example 7, N-(5-cyano-6-methylpyridin-2-yl)-1-(2-(4-methyl-1-oxo-1,3-dihydroisobenzofuran-5-yl)ethyl)piperidine-4-carboxamide]",100
8,"Cc1cc(C#N)ccc1NC(=O)C1CCN(CCc2ccc3c(c2C)COC3=O)CC1 [Example 8, N-(4-cyano-2-methylphenyl)-1-(2-(4-methyl-1-oxo-1,3-dihydroisobenzofuran-5-yl)ethyl)piperidine-4-carboxamide]",100
9,"Cc1c(CCN2CCC(C(=O)Nc3cc(C#N)ccc3F)CC2)ccc2c1COC2=O [Example 9, N-(5-cyano-2-fluorophenyl)-1-(2-(4-methyl-1-oxo-1,3-dihydroisobenzofuran-5-yl)ethyl)piperidine-4-carboxamide]",250
10,"Cc1c(CCN2CCC(C(=O)Nc3ccc4c(c3)COC4=O)CC2)ccc2c1COC2=O [Example 10, 1-(2-(4-methyl-1-oxo-1,3-dihydroisobenzofuran-5-yl)ethyl)-N-(1-oxo-1,3-dihydroisobenzofuran-5-yl)piperidine-4-carboxamide]",10
11,"Cc1c(CCN2CCC(C(=O)Nc3ccc4nonc4c3)CC2)ccc2c1COC2=O [Example 11, N-(benzo[c][1,2,5]oxadiazol-5-yl)-1-(2-(4-methyl-1-oxo-1,3-dihydroisobenzofuran-5-yl)ethyl)piperidine-4-carboxamide]",210
12,"N#Cc1cc(NC(=O)C2CCN(CCc3ccc4c(c3)COC4=O)CC2)n(-c2ccc(F)cc2)c1 [Example 21, N-(4-cyano-1-(4-fluorophenyl)-1H-pyrrol-2-yl)-1-(2-(1-oxo-1,3-dihydroisobenzofuran-5-yl)ethyl)piperidine-4-carboxamide]",410
13,"Cc1c([C@@H](O)CN2CCC(C(=O)Nc3ccns3)CC2)ccc2c1COC2=O [Example 22, 1-[(2R)-2-hydroxy-2-(4-methyl-1-oxo-1,3-dihydro-2-benzofuran-5-yl)ethyl]-N-(isothiazol-5-yl)piperidine-4-carboxamide]",40

# The remaining lines, values ahead:
row,IC50 [nM],SMILES
1,30,"Cc1c(CCN2CCC(C(=O)Nc3ccc(C#N)c(F)c3)CC2)ccc2c1COC2=O [Example 5, N-(4-cyano-3-fluorophenyl)-1-(2-(4-methyl-1-oxo-1,3-dihydroisobenzofuran-5-yl)ethyl)piperidine-4-carboxamide]"
2,30,"CCOc1cc(NC(=O)C2CCN(CCc3ccc4c(c3)COC4=O)CC2)ccc1C#N [Example 12, N-(4-cyano-3-ethoxyphenyl)-1-[2-(1-oxo-1,3-dihydro-2-benzofuran-5-yl)ethyl]piperidine-4-carboxamide]"
3,30,"COc1cc(NC(=O)C2CCN(CCc3ccc4c(c3)COC4=O)CC2)ccc1C#N [Example 13, N-(4-cyano-3-methoxyphenyl)-1-(2-(1-oxo-1,3-dihydroisobenzofuran-5-yl)ethyl)piperidine-4-carboxamide]"
4,140,"N#Cc1cc(F)c(NC(=O)C2CCN(CCc3ccc4c(c3)COC4=O)CC2)cc1F [Example 14, N-(4-cyano-2,5-difluorophenyl)-1-(2-(1-oxo-1,3-dihydroisobenzofuran-5-yl)ethyl)piperidine-4-carboxamide]"
5,180,"N#Cc1ccc(NC(=O)C2CCN(CCc3ccc4c(c3)COC4=O)CC2)c(OC(F)(F)F)c1 [Example 15, N-(4-cyano-2-(trifluoromethoxy)phenyl)-1-(2-(1-oxo-1,3-dihydroisobenzofuran-5-yl)ethyl)piperidine-4-carboxamide]"
6,260,"N#Cc1cc(NC(=O)C2CCN(CCc3ccc4c(c3)COC4=O)CC2)ccc1Cl [Example 16, N-(4-chloro-3-cyanophenyl)-1-(2-(1-oxo-1,3-dihydroisobenzofuran-5-yl)ethyl)piperidine-4-carboxamide]"
7,410,"N#Cc1cc(NC(=O)C2CCN(CCc3ccc4c(c3)COC4=O)CC2)ccc1F [Example 17, N-(3-cyano-4-fluorophenyl)-1-(2-(1-oxo-1,3-dihydroisobenzofuran-5-yl)ethyl)piperidine-4-carboxamide]"
8,510,"O=C1OCc2cc(CCN3CCC(C(=O)Nc4ccc5cn[nH]c5c4)CC3)ccc21 [Example 18, N-(1H-indazol-6-yl)-1-(2-(1-oxo-1,3-dihydroisobenzofuran-5-yl)ethyl)piperidine-4-carboxamide]"
9,440,"O=C1OCc2cc(CCN3CCC(C(=O)Nc4ccc5[nH]nnc5c4)CC3)ccc21 [Example 19, N-(1H-benzo[d][1,2,3]triazol-5-yl)-1-(2-(1-oxo-1,3-dihydroisobenzofuran-5-yl)ethyl)piperidine-4-carboxamide]"
10,470,"O=C1OCc2cc(CCN3CCC(C(=O)Nc4ccc5sncc5c4)CC3)ccc21 [Example 20, N-(benzo[d]isothiazol-5-yl)-1-(2-(1-oxo-1,3-dihydroisobenzofuran-5-yl)ethyl)piperidine-4-carboxamide]"

# Reference: US9951052B2, “Inhibitors of the renal outer medullary potassium channel” (Merck Sharp & Dohme Corp., priority 2013, dated 2018)
